# According to patent US9944589B2, “Cycloproplyamine derivatives useful as inhibitors of histone demethylases KDM1A” (Istituto Europeo de Oncologia S.r.L., priority 2012, dated 2018):
# Counter-ions that a name gives are not always drawn.
# Columns and labels:
# [1] = target: T1, human recombinant KDM1A (LSD1)/CoRest (Homo sapiens, UniProt O60341); test: Assay of enzyme inhibition of KDM1A (LSD1), Amplex UltraRed/peroxidase coupled; format: biochemical; settings: 15 min preincubation, 4.5 μM mono-methylated H3-K4 peptide, range classes, read-out: IC50 [μM], KDM1A inhibition assay
# T1 construct: made in house; host or cells: E. coli
# Summary of the method: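 KDM1A/CoRest complex with inhibitor (e.g. 0–100 μM) and Amplex UltraRed/peroxidase preincubated 15 min at RT. Substrate: mono-methylated H3K4 21-mer peptide in 50 mM Tris pH 8, 0.05 mg/ml BSA, aerobic. IC50 from duplicates run twice, background-corrected.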
# [2] = system: Acute promyelocytic leukemia NB4 cells; test: Cell growth (CellTiter-Fluor cell viability assay); format: cell-based; settings: Homo sapiens, NB-4, 48 h, range classes, read-out: IC50 [μM], cell growth inhibitory assay
# Excerpt: CellTiter-Flor® (Promega) is as a nonlytic, single-reagent-addition fluorescence assay that measures the relative number of living cells in a culture population after experimental manipulation. The CellTiter-Fluor™ Cell Viability Assay measures the conserved and constitutive protease activity within live cells and therefore acts as a marker for cell viability.
# Acute promyelocytic leukemia NB4 cells, (obtained from the Deutsche Sammlung von Mikroorganismen and Zellkulturen) in exponential growth, were incubated for 48 h with different concentrations of the inhibitors. After 48 h a volume of CellTiter-Fluor® Reagent equal to one fifth of volume of cell culture medium was added. The content was mixed and incubates for at least 90 min at 37° C. degree to obtain a stable signal. The fluorescence was recorded using an excitation wavelength of 360 nm and an emission at 535 nm. The IC50 was calculated using GraphPad Software.
smiles,measurement,setting,value
"CC[C@@]1(N)C[C@H]1c1cccc(NC(=O)Cc2cccc3ccccc23)c1 (relative stereo) [Example A-77, N-[3-[trans-2-amino-2-ethyl-cyclopropyl]phenyl]-2-(1-naphthyl) acetamide hydrochloride]",IC50,[1],0.1 to 1 µM
same,IC50,[2],10 to 50 µM
"N[C@]1(Cc2ccc3ccccc3c2)C[C@H]1c1ccc(NC(=O)c2cccc(Cl)c2)cc1 (relative stereo) [Example A-79, N-[4-[trans-2-amino-2-(2-naphthylmethyl)cyclopropyl]phenyl]-3-chloro-benzamide hydrochloride]",IC50,[1],< 0.1 µM
same,IC50,[2],10 to 50 µM
"CC[C@@]1(N)C[C@H]1c1cccc(NC(=O)c2cccc(Cl)c2)c1 (relative stereo) [Example A-80, N-[3-[trans-2-amino-2-ethyl-cyclopropyl]phenyl]-3-chloro-benzamide hydrochloride]",IC50,[1],0.1 to 1 µM
same,IC50,[2],10 to 50 µM
"CC[C@@]1(N)C[C@H]1c1ccc(NC(=O)c2ccc(N3CCOC3=O)cc2)cc1 (relative stereo) [Example A-83, N-[4-[trans-2-amino-2-ethyl-cyclopropyl]phenyl]-4-(2-oxooxazolidin-3-yl)benzamide hydrochloride]",IC50,[1],< 0.1 µM
same,IC50,[2],≤ 10 µM
"N[C@]1(c2ccccc2)C[C@H]1c1ccc(NC(=O)c2cccc(NC(=O)OCc3ccccc3)c2)cc1 (relative stereo) [Example A-84, benzyl N-[3-[(4-[trans-2-amino-2-phenyl-cyclopropyl]phenyl)carbamoyl]phenyl]carbamate 2,2,2-trifluoroacetic acid]",IC50,[1],< 0.1 µM
same,IC50,[2],10 to 50 µM
"N[C@]1(c2ccccc2)C[C@H]1c1ccc(NC(=O)c2ccc3ccccc3c2)cc1 (relative stereo) [Example A-85, N-[4-[trans-2-amino-2-phenyl-cyclopropyl]phenyl] naphthalene-2-carboxamide hydrochloride]",IC50,[1],< 0.1 µM
same,IC50,[2],≤ 10 µM
"CC[C@@]1(N)C[C@H]1c1ccc(NC(=O)c2ccccc2)c(F)c1 (relative stereo) [Example A-86, N-[4-[trans-2-amino-2-ethyl-cyclopropyl]-2-fluoro-phenyl]benzamide hydrochloride]",IC50,[1],< 0.1 µM
same,IC50,[2],50 to 100 µM
"CC[C@@]1(N)C[C@H]1c1ccc(NC(=O)c2ccc(-c3ccccc3)cc2)c(F)c1 (relative stereo) [Example A-87, N-[4-[trans-2-amino-2-ethyl-cyclopropyl]-2-fluoro-phenyl]-4-phenyl-benzamide hydrochloride]",IC50,[1],< 0.1 µM
same,IC50,[2],10 to 50 µM
"CC[C@@]1(N)C[C@H]1c1ccc(NC(=O)c2ccc(N3CCOCC3)cc2)cc1 (relative stereo) [Example A-88, N-[4-[trans-2-amino-2-ethyl-cyclopropyl]phenyl]-4-morpholino-benzamide 2,2,2-trifluoroacetic acid]",IC50,[1],< 0.1 µM
same,IC50,[2],10 to 50 µM
"N[C@]1(c2ccccc2)C[C@H]1c1ccc(NC(=O)c2ccc(-c3ccccc3)cc2)cc1 (relative stereo) [Example A-89, N-[4-[trans-2-amino-2-phenyl-cyclopropyl]phenyl]-4-phenyl-benzamide 2,2,2-trifluoroacetic acid]",IC50,[1],< 0.1 µM
same,IC50,[2],≤ 10 µM
"N[C@]1(c2ccccc2)C[C@H]1c1ccc(NC(=O)c2cccc3ccccc23)cc1 (relative stereo) [Example A-90, N-[4-[trans-2-amino-2-phenyl-cyclopropyl]phenyl] naphthalene-1-carboxamide hydrochloride]",IC50,[1],< 0.1 µM
same,IC50,[2],≤ 10 µM
"CC[C@@]1(N)C[C@H]1c1cccc(NC(=O)c2ccc(-c3ccccc3)cc2)c1 (relative stereo) [Example A-91, N-[3-[trans-2-amino-2-ethyl-cyclopropyl]phenyl]-4-phenyl-benzamide hydrochloride]",IC50,[1],0.1 to 1 µM
same,IC50,[2],10 to 50 µM
"CC[C@@]1(N)C[C@H]1c1cccc(NC(=O)c2ccc3ccccc3c2)c1 (relative stereo) [Example A-92, N-[3-[trans-2-amino-2-ethyl-cyclopropyl]phenyl] naphthalene-2-carboxamide hydrochloride]",IC50,[1],0.1 to 1 µM
same,IC50,[2],10 to 50 µM
"CC[C@@]1(N)C[C@H]1c1ccc(NC(=O)c2ccc(NC(=O)OCc3ccccc3)cc2)c(F)c1 (relative stereo) [Example A-95, benzyl N-[4-[[4-[trans-2-amino-2-ethyl-cyclopropyl]-2-fluoro-phenyl]carbamoyl]phenyl]carbamate hydrochloride]",IC50,[1],0.1 to 1 µM
same,IC50,[2],≤ 10 µM
"CC[C@@]1(N)C[C@H]1c1ccc(NC(=O)c2ccc(N3CCN(C)CC3)cc2)cc1 (relative stereo) [Example A-97, N-[4-[trans-2-amino-2-ethyl-cyclopropyl]phenyl]-4-(4-methylpiperazin-1-yl)benzamide 2,2,2-trifluoroacetic acid]",IC50,[1],< 0.1 µM
same,IC50,[2],10 to 50 µM
"CC[C@@]1(N)C[C@H]1c1ccc(NC(=O)c2ccc(N3CCOCC3)c(NC(=O)OCc3ccccc3)c2)cc1 (relative stereo) [Example A-99, benzyl N-[5-[[4-[trans-2-amino-2-ethyl-cyclopropyl]phenyl]carbamoyl]-2-morpholino-phenyl]carbamate 2,2,2-trifluoroacetic acid]",IC50,[1],< 0.1 µM
same,IC50,[2],≤ 10 µM
"CC[C@@]1(N)C[C@H]1c1ccc(NC(=O)c2ccncc2)cc1 (relative stereo) [Example A-101, N-[4-(trans-2-amino-2-ethyl-cyclopropyl)phenyl] pyridine-4-carboxamide dihydrochloride]",IC50,[1],< 0.1 µM
same,IC50,[2],10 to 50 µM
"N[C@]1(CCc2ccccc2)C[C@H]1c1ccc(NC(=O)c2ccc(-c3ccccc3)cc2)cc1 (relative stereo) [Example A-113, N-[4-(trans-2-amino-2-phenethyl-cyclopropyl)phenyl]-4-phenyl-benzamide hydrochloride]",IC50,[1],0.1 to 1 µM
same,IC50,[2],≤ 10 µM
"CN1CCC(c2ccc(C(=O)Nc3ccc([C@@H]4C[C@]4(N)CCc4ccccc4)cc3)cc2)CC1 (relative stereo) [Example A-115, N-[4-(trans-2-amino-2-phenethyl-cyclopropyl)phenyl]-4-(1-methyl-4-piperidyl)benzamide dihydrochloride]",IC50,[1],< 0.1 µM
same,IC50,[2],≤ 10 µM
"CC[C@@]1(N)C[C@H]1c1ccc(NC(=O)c2ccc(N3CCN(C)CC3)c(NC(=O)OCc3ccccc3)c2)cc1 (relative stereo) [Example A-117, benzyl N-[5-[[4-[trans-2-amino-2-ethyl-cyclopropyl]phenyl]carbamoyl]-2-(4-methylpiperazin-1-yl)phenyl] carbamate 2,2,2-trifluoroacetic acid]",IC50,[1],0.1 to 1 µM
same,IC50,[2],≤ 10 µM
"N[C@]1(CCc2ccccc2)C[C@H]1c1ccc(NC(=O)c2cccc(N3CCOC3=O)c2)cc1 (relative stereo) [Example A-118, N-[4-(trans-2-amino-2-phenethyl-cyclopropyl)phenyl]-3-(2-oxooxazolidin-3-yl)benzamide 2,2,2-trifluoroacetic acid]",IC50,[1],< 0.1 µM
same,IC50,[2],≤ 10 µM
"CC[C@@]1(N)C[C@H]1c1ccc(-n2cc(-c3cccc(NC(=O)OCc4ccccc4)c3)nn2)cc1 (relative stereo) [Example A-121, Benzyl N-[3-[1-[4-[trans-2-amino-2-ethyl-cyclopropyl]phenyl]triazol-4-yl]phenyl]carbamate hydrochloride]",IC50,[1],0.1 to 1 µM
same,IC50,[2],50 to 100 µM
